This is an account of results in article PMC6695674, “Bioluminescence Resonance Energy Transfer Based G Protein-Activation Assay to Probe Duration of Antagonism at the Histamine H3 Receptor” (International Journal of Molecular Sciences, 2019).

The target of test [1] is hH3R. Conditions: previously reported competition binding studies, cited from earlier work.
For test [2], the target named is T1, human histamine H3 receptor (hH3R) (Homo sapiens, UniProt Q9Y5N1).
T1 construct: expressed in transfected cells; host or cells: HEK293T cells, transient transfection (hH3R in pcDEF3)
In words: BRET between Venus-Gβ1γ2 and masGRK3ct-Nluc to measure hH3R-induced Gαi2 activation in HEK293T cells. It counts as cell-based. Conditions: for agonist efficacy class in the Gβ1γ2 release assay: HEK293T cells co-expressing hH3R and Gαi2; for intrinsic activity (α) / pEC50 ± S.E.M.: hH3R-mediated Gαi2 activation in HEK293T cells; for inhibition of Venus-Gβ1γ2 recruitment to masGRK3ct-Nluc in response to 1 µM histamine: antagonist 10 µM; for pEC50 ± S.E.M.: BRET ratio after 10 min, mean ± S.E.M. of three experiments. How it is done:
Cells were transiently transfected in a 10 cm^2 dish with plasmids coding for Venus155-239-Gβ1 (0.4 µg), Venus1-155-Gγ2 (0.4 µg), masGRK3ct-Nluc (0.4 µg), hH3R (0.4 µg), Gαi2-protein (1.2 µg), and empty pcDEF3 (2.2 µg) using 20 µg 25 kDa linear polyethylenimine (Polysciences Inc, Warrington, PA, USA), as previously described. The next day, 50,000 cells/well were transferred to a poly-L-lysine coated black 96 well plates (Greiner Bio-one GmbH, Frickenhausen, Germany) and grown for an additional 24 h.
(§1) Agonist-induced BRET between Venus-Gβ1γ2 and masGRK3ct-Nluc was measured on adherent HEK293T cells co-expressing hH3R and Gαi2 in the presence of NanoGlo® (3.2 µL/mL) using a Mithras LB940 multimode microplate reader (Berthold, Germany). Cells were stimulated with histamine in the absence and presence of antagonist in HBSS buffer, and BRET (540–40 nm) and luminescence (480–20 nm) signals were monitored either immediately or after 10 min at 25 °C. […] Next, cells were incubated in HBSS and stimulated with 10 μM imetit after various incubation times. BRET between Venus-G1βγ2 and masGRK3ct-Nluc was immediately measured upon imetit stimulation and BRET ratio after 10 s were plotted. Re-equilibration of pre-bound antagonists was measured upon pre-incubation of the cells with increasing concentrations of antagonist for one hour prior to the addition of increasing concentrations imetit or VUF8328 and BRET ratio was calculated either immediately after agonist addition (0–3 min) or after 10 min re-equilibration.
Ligand-induced BRET changes were calculated by dividing emission at 540–40 nm (Venus) by emission at 480–20 nm (Nluc) and baseline-corrected by subtracting BRET of vehicle. […] Agonist and antagonist concentration-response curves were fitted to three-parameter response models to obtain EC50 and IC50 values, respectively. […] For receptor recovery the vehicle corrected BRET ratio at 10 s after agonist addition was plotted over time.
(Bioluminescence resonance energy transfer reports proximity on the nanometre scale.)

For test [3], the target named is T1, human histamine H3 receptor (hH3R). In words: Recovery of hH3R responsiveness after washout of pre-bound antagonist (BRET Gβ1γ2 release assay). Type of test: cell-based. Conditions: for RecT (receptor recovery time, 1/krec): 1 h pre-incubation at 10 × IC50, washout, 10 µM imetit, measured in singlo; for recovery of H3R-induced Gβ1γ2 release to steady-state level upon washout: agonist stimulation after washout of pre-bound antagonist. The procedure:
Cells were then stimulated with a saturating concentration of imetit (10 µM) after different time intervals and BRET changes between Venus-Gβ1γ2 and masGRK3ct-Nluc were measured directly and BRET ratio 10 s after agonist stimulation were plotted (Figure 2A,B).
as §1
The receptor recovery time (RecT) was calculated as the reciprocal of the krec.

For test [4] the target is unchanged. In words: Re-equilibration of pre-bound antagonist, Schild-plot analysis (BRET Gβ1γ2 release assay). Type of test: cell-based. Conditions: for type of antagonism after 10 min re-equilibration: VUF8328, 1 h antagonist pre-incubation; for type of antagonism, response measured directly following agonist stimulation: imetit or VUF8328, 1 h antagonist pre-incubation. How it is done: Receptor-induced Venus-Gβ1γ2 recruitment to masGRK3ct-Nluc can be detected after different time intervals following stimulation with agonist, which offers the opportunity to evaluate the re-equilibration time of pre-bound antagonist within the same agonist-induced response. Cells were pre-incubated for 1 h with multiple concentrations of antagonist and subsequently stimulated with increasing concentrations agonist and BRET ratio was calculated either immediately after agonist addition or after 10 min re-equilibration (Figure 3A).
as §1
Equiactive agonist concentrations for Schild analysis were determined from concentration response curves at 10 % max agonist response (vide supra) in the absence and presence of increasing antagonist concentrations. Dose ratios (DR) were calculated by dividing the equiactive agonist concentration in the presence of antagonist by the equiactive agonist concentration in the absence of antagonist.

The next test has as its system H3R. More on the design: method as in PMID 30249614, PMID 30359639. Conditions: intact HEK293T cells; cited from earlier work.
For test [5], the system named is hH3R. More on the design: method as in PMID 30249614. Conditions: CAMYEL biosensor; cited from earlier work.
[6] abbreviates: 1 h antagonist pre-incubation, agonist VUF8328, BRET after 10 min re-equilibration.
Setting [7] is: 1 h antagonist pre-incubation, agonist VUF8328, BRET measured immediately.
Setting [8] is: 1 h antagonist pre-incubation, agonist imetit, BRET measured immediately.

Like-named read-outs stand apart in the source and are kept apart here.

T1 sequence (Q9Y5N1 whole entry): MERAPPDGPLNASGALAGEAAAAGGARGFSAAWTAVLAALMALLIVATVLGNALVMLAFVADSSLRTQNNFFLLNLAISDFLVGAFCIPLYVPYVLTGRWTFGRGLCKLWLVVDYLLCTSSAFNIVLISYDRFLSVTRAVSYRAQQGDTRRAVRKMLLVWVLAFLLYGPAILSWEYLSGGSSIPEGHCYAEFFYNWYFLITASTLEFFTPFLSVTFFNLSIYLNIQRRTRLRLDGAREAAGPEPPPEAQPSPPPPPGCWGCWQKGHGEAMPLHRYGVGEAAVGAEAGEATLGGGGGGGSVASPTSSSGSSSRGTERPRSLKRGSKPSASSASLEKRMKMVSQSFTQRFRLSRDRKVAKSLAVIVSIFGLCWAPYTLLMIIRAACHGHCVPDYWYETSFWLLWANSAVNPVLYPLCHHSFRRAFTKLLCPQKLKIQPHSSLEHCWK

By pKi is commonly meant −log10 of the Ki, conventionally taken in molar units. For `NCCc1c[nH]cn1` [Histamine, histamine], on hH3R [1] (agonists), the pKi is 6.7.

For orientation: EC50 means the concentration that produces a half-maximal response. A higher EC50 goes with a need for much substance. On to `N=C(N)SCCc1cnc[nH]1` [Imetit], for which, in test [2], the concentration for a half-maximal effect (EC50) is 0.251 nM and the “agonist efficacy class in the Gβ1γ2 release assay” value (from here on “agonist efficacy class”) is given as “full agonist”. In test [2] (mean ± S.E.M.), the “intrinsic activity (α)” value was 1.1 ± 0.1. Further, at hH3R [1] (agonists), the negative-log Ki (pKi) is reported as 8.6.

Take `CN1CCN(C(=O)c2cc3cc(Cl)ccc3[nH]2)CC1` [JNJ7777120]: the “inhibition of Venus-Gβ1γ2 recruitment to masGRK3ct-Nluc in response to 1 µM histamine” value (“inhibition of Venus-Gβ1γ2 recruitment” for short) in test [2] was “ineffective”.

What is called pKB is the KB on a negative log10 scale, so that one unit is a factor of ten. On to `CCNC(=O)[C@H]1C[C@@](F)(c2ccc(CN3CCCC3)c(F)c2)C1` [PF03654746], for which the negative logarithm of the KB (pKB) in test [2] (calculated from IC50 values, inhibition of histamine-induced (1 µM) BRET ratio, 10 min, mean ± S.E.M.) is 9.9 ± 0.1. In test [3], the “RecT (receptor recovery time, 1/krec)” value is 3.6 ± 0.3 min and the “recovery of H3R-induced Gβ1γ2 release to steady-state level upon washout” value is below 20 min. Besides, the “hH3R recovery slower than upon washout of iodophenpropit and pitolisant” value in test [3] (after antagonist washout) lay in the range of 2 to 2.5 fold. Besides, in test [4] (setting [6]), the “Schild slope, VUF8328 (10 min)” value is reported as 1.2 ± 0.1 and the “pA2, VUF8328 (10 min)” value stood at 9.6 ± 0.2. Further, in test [4] (setting [7]), the “Schild slope, VUF8328 (0 min)” value is on record as 1.5 ± 0.2 and the “pA2, VUF8328 (0 min)” value is recorded as 9.3 ± 0.2. In test [4] (setting [8]), the “Schild slope, Imetit (0 min)” value was found to be 1.0 ± 0.1 and the “pA2, Imetit (0 min)” value was 9.8 ± 0.1. Also, in test [4], the “type of antagonism after 10 min re-equilibration” value is on record as “near-surmountable” and the “type of antagonism, response measured directly following agonist stimulation” value is reported as “insurmountable antagonists”. In addition, the negative logarithm of the Ki (pKi) at hH3R [1] (antagonists) is on record as 9.3. Also, the residence time entry in the test on H3R is on record as “approximately 15 min”.

As to `Clc1ccc(CCCOCCCN2CCCCC2)cc1` [Pitolisant], the “inhibition of Venus-Gβ1γ2 recruitment” value in test [2] is on record as “fully inhibited”. Also, in test [3], the “RecT (receptor recovery time, 1/krec)” value is given as 1.7 ± 0.3 min and the “recovery of H3R-induced Gβ1γ2 release to steady-state level upon washout” value is below 20 min. In addition, the “Schild slope, VUF8328 (10 min)” value in test [4] (setting [6]) is 1.1 ± 0.1. In test [4] (setting [7]), the “Schild slope, VUF8328 (0 min)” value is 1.4 ± 0.0. Moreover, the “Schild slope, Imetit (0 min)” value in test [4] (setting [8]) amounted to 1.1 ± 0.0. In test [4], the “type of antagonism after 10 min re-equilibration” value is recorded as “surmountable” and the “type of antagonism, response measured directly following agonist stimulation” value is given as “insurmountable antagonists”. Besides, the “time to full recovery of hH3R responsiveness following washout” value with hH3R [5] is given as above 30 min.

With `N=C(N)SCCCc1cnc[nH]1` [VUF8328], in test [2], the “agonist efficacy class” value is listed as “partial agonist” and the “pEC50 ± S.E.M.” value is 9.4 ± 0.1. Further, the “intrinsic activity (α)” value in test [2] (mean ± S.E.M.) is 0.7 ± 0.2. The pKi at hH3R [1] (agonists) was 8.5.

With `c1ncc(CC2CCNCC2)[nH]1` [immepip], in test [2], the “agonist efficacy class” value was “full agonist” and the “pEC50 ± S.E.M.” value came to 9.9 ± 0.1. For the same compound, the “intrinsic activity (α)” value in test [2] (mean ± S.E.M.) is on record as 1.0 ± 0.1. The pKi at hH3R [1] (agonists) is given as 8.8.

Turning to `COc1ccc(CN(CCN(C)C)c2ccccn2)cc1` [mepyramine], the “inhibition of Venus-Gβ1γ2 recruitment” value in test [2] is “ineffective”.

On to `CNC(=NCCSCc1csc(N=C(N)N)n1)NC#N` [tiotidine], for which the “inhibition of Venus-Gβ1γ2 recruitment” value in test [2] is “ineffective”.
